This is an account of results in patent US20180251824A1, “IN VITRO GENOTOXICITY ASSAY USING A TRANSCRIPTOMIC BIOMARKER WITH DIRECT DIGITAL COUNTING” (GEORGETOWN UNIVERSITY, priority 2017, published 2018).

Entries after “also recorded” stand apart in the source; their conditions may differ.

The subject of data set [1] is TGx-DDI biomarker genes in TK6 cells. In words: TGx-DDI transcriptomic biomarker classification by microarray. Format: cell-based, human. As to conditions: for TGx-DDI classification, overall call (DDI if positive in any of 2DC, PCA, PA): TK6 cells, 4 h, single selected concentration; for TGx-DDI classification by 2DC and/or PCA: DDI branch in 2DC or negative PC1 = DDI; for TGx-DDI prediction by probability analysis (PA): DDI call based on p>0.9. The source says: Microarray procedures: RNA samples from the concentration-setting experiments of each compound at their selected concentrations were pooled together and analyzed using human whole genome expression long-nucleotide probe microarrays (60 nucleotide long, Agilent Technologies) microarray (Li et al., 2015). […] Each experiment was run on two arrays, and on each array both treated and reference (vehicle control) samples were hybridized in a dye-swap design. Specifically, the reference and treatment samples were labeled with two different fluorescence dyes, Cy3 and Cy5, and then both samples were hybridized onto one array. To reduce the effects associated with different labeling efficiencies, a two-color dye-swapping configuration was used. The results from these two arrays were combined for statistical analysis.
TGx-DDI transcriptomic biomarker evaluation: Following the dose determination, microarray analysis was performed for each test compound. RNAs from three replicates in the concentration-setting experiment were pooled together and used for microarray analysis. Cisplatin and ionizing radiation were used in parallel during each experiment as positive controls and to assess batch variation. The TGx-DDI transcriptomic biomarker panel was used to classify each chemical as DDI or non-DDI using two-dimensional clustering (2DC), principal component analysis (PCA), and probability analysis (PA). Hierarchical clustering and PCA were used as an initial unsupervised method to explore the data.
The TGx-DDI heatmap for chemicals in all five classes. PA, PCA, and 2DC results using the TGx-DDI biomarker for validation chemicals were generated. In order to decrease the probability of false negatives, a three-pronged approach was used. A chemical was classified as DDI if it gave a positive call in any one of the TGx-DDI biomarker analyses described in the paragraph above (2DC, PCA or PA prediction).

The test system of data set [2] is ATF3, CDKN1A and GADD45A expression in TK6 cells. In words: qRT-PCR indicator stress gene panel, dose optimization. Format: cell-based, human. As to conditions: for transcriptional response of the indicator genes at a later time point: later than the 4 h time point. On the procedure: Dose optimization: For some assays, a sufficient concentration of the test agent is required to trigger a measureable transcriptional response; such concentrations may differ from other toxicological endpoints. Therefore, to determine an appropriate concentration for transcriptomics profiling, a dose-range finder experiment was performed for all test compounds as described in Li et al. (2015). Six concentrations of each agent were used for assessment of mRNA changes in three indicator genes (ATF 3, CDKNIA, and GADD45A) by qRT-PCR. The concentration for each agent showing the strongest induction of the indicator genes was then selected. In addition, concordance of responses in the indicator genes was confirmed prior to pooling samples for microarray analysis. If none of the indicator genes were induced in concentration-setting experiments, the IC50 was selected for the microarray analysis. The IC50 value was determined using a standard MTT assay at 24 hr using 10 concentrations and 3 replicates. Based on this cytotoxicity assay, the selected concentrations for microarray analysis were not overtly cytotoxic for any test agent (FIG. 2). If there was neither cytotoxicity nor induction of expression changes in the gene panel, a concentration of 1 mM was used for microarray analysis, as per the revised ICHS2(R1) guidance on genotoxicity testing of pharmaceuticals (ICHS2(R1) (2012) Guidance for Industry: S2(R1) Genotoxicity testing and data interpretation for pharmaceuticals intended for human use. US Department of Health and Human Services, Food and Drug Administration http://www.ich.org/fileadmin/Public_Web_Site/ICH_Products/Guidelines/Safety/S2_R1/Step4/S2R1_Step4.pdf). Selection of a single concentration and pooling replicate samples for microarray analysis (described below) is specific to biomarker development and validation, where multiple compounds were used in each class; future application in substance testing should be undertaken using a dose-response design with samples in triplicate (Buick et al., 2017).

For data set [3], the system named is TGx-DDI biomarker genes in TK6 cells. Description: TGx-DDI nCounter assay (direct digital counting). Particulars: 100 ng total RNA, same samples as microarray; 2DC, PCA, PA.
Method: Briefly, exponentially growing cells were treated with the indicated chemical agent for 4 h over a broad dose range, cells were harvested, and total RNA was isolated. […] For cell viability assays, at the end of 4 hr treatment, medium was removed from cells, and cells were washed and recovered in fresh medium for 20 hr. Cell viability was measured at the end of recovery period using an MTT Assay kit (Cayman Chemical, Ann Arbor, Mich.).
TGx-DDI nCounter Assay: The nCounter™ assay was performed on 100 ng of RNA that had previously been pooled and used in microarray analysis. […] In brief, optimized sequences for genes in the TGx-DDI panel were custom-designed and manufactured by NanoString. The CodeSet includes the TGx-DDI gene-set and eight housekeeping genes. Housekeeping genes were selected based on stability and detectable expression levels, including G6PD, GUSB, HPRT1, LDHA, NONO, PGK1, PPIH, and TFRC.
To validate the sensitivity and specificity of DDI prediction by TGx-DDI nCounter assay, 38 out of 45 testing compounds, including Class 1, 2, 4 and 5, were evaluated using nCounter technology. nCounter assays were performed on 100 ng of total RNA, the same RNA samples that were used in microarray analysis. Following the categorization guideline described already for microarrays, compounds were classified as DDI or non-DDI based on nCounter assay data.
For another data set, the system named is TK6 cells. In words: MTT cell viability assay. Format: cell-based, human. Particulars: selected concentration, 4 hr treatment plus 20 hr recovery. On the procedure: Dose optimization: For some assays, a sufficient concentration of the test agent is required to trigger a measureable transcriptional response; such concentrations may differ from other toxicological endpoints. Therefore, to determine an appropriate concentration for transcriptomics profiling, a dose-range finder experiment was performed for all test compounds as described in Li et al. (2015). Six concentrations of each agent were used for assessment of mRNA changes in three indicator genes (ATF 3, CDKNIA, and GADD45A) by qRT-PCR. The concentration for each agent showing the strongest induction of the indicator genes was then selected. In addition, concordance of responses in the indicator genes was confirmed prior to pooling samples for microarray analysis. If none of the indicator genes were induced in concentration-setting experiments, the IC50 was selected for the microarray analysis. The IC50 value was determined using a standard MTT assay at 24 hr using 10 concentrations and 3 replicates. Based on this cytotoxicity assay, the selected concentrations for microarray analysis were not overtly cytotoxic for any test agent (FIG. 2). Based on this cytotoxicity assay, the selected doses for microarray analysis were not overtly cytotoxic. […]
Background: Tetrazolium dyes change colour on reduction, which living cells bring about.

In the case of `O=c1[nH]cc(F)c(=O)[nH]1` [5-FU], in data set [1], the “TGx-DDI classification, overall call (DDI if positive in any of 2DC, PCA, PA)” value (“TGx-DDI classification, overall call” below) is “DDI”.
As for `Nc1ncn([C@@H]2O[C@H](CO)[C@@H](O)[C@H]2O)c(=O)n1` [5-azacytidine], the “TGx-DDI classification, overall call” value in data set [1] is on record as “non-DDI”. The “transcriptional response of the indicator genes at a later time point” value in data set [2] was “stronger transcriptional response”.
As for `Nc1nc2[nH]cnc2c(=S)[nH]1` [6-TG], the “TGx-DDI classification, overall call” value in data set [1] is recorded as “DDI”.
In the case of `Sc1ncnc2nc[nH]c12` [6-mercaptopurine], in data set [1], the “TGx-DDI classification, overall call” value was “non-DDI”. The “transcriptional response of the indicator genes at a later time point” value in data set [2] was “stronger transcriptional response”.
Consider `COS(C)(=O)=O` [MMS], for which, in data set [1] (reproducibility check with training-set agents, selected concentration), the “clustering by 2DC using the TGx-DDI biomarker” value is on record as “clustered with the genotoxic agents”.
As to `CS(=O)(=O)OCCCCOS(C)(=O)=O` [busulfan], in data set [1], the “TGx-DDI classification by 2DC and/or PCA” value is on record as “DDI agents; also recorded: positive” and the “TGx-DDI prediction by probability analysis (PA)” value (from here on “TGx-DDI prediction”) was “non-DDI”. Besides, the “TGx-DDI classification by nCounter” value in data set [3] is listed as “consistency among three classification methods”. Further, in data set [2] (TK6 cells, 4 h treatment, selected concentration), the “GADD45A induction relative to vehicle-treated control cells” value is listed as “at least 2 fold”. Also, the “induction of stress genes at higher concentrations” value in data set [2] (concentrations above the selected one) was “did not cause greater induction”.
As for `Cc1nc(Nc2ncc(C(=O)Nc3c(C)cccc3Cl)s2)cc(N2CCN(CCO)CC2)n1` [dasatanib], the “TGx-DDI classification, overall call” value in data set [1] is given as “genotoxic calls”.
On to `CC/C(=C(/CC)c1ccc(O)cc1)c1ccc(O)cc1` [diethylstilbestrol], for which, in data set [1], the “TGx-DDI classification by 2DC and/or PCA” value is “positive”; the “TGx-DDI prediction” value is listed as “non-DDI”; the “TGx-DDI classification, overall call” value is “genotoxic calls”.
Take `Oc1ccc(O)cc1` [hydroquinone]: in data set [1], the “TGx-DDI classification by 2DC and/or PCA” value is given as “DDI agents; also recorded: positive” and the “TGx-DDI prediction” value was “non-DDI”. Moreover, in data set [3], the “TGx-DDI classification by nCounter” value is reported as “consistency among three classification methods”.
For `CCn1cc(C(=O)O)c(=O)c2cc(F)c(N3CCNCC3)cc21` [norfloxacin], the “TGx-DDI classification, overall call” value in data set [1] is recorded as “non-DDI”.
For `CCCN(CCc1cccs1)[C@H]1CCc2c(O)cccc2C1` [rotigotin], the “induction of indicator genes ATF3, CDKN1A, GADD45A” value in data set [2] (TK6 cells, 4 h treatment, selected or tested concentrations) was “did not induce any of the indicator genes”.
With bleomycin, the “decline (reduction) in cell viability at 24 hr” value in the data set on TK6 cells is listed as 80%.
